From ChEMBL document CHEMBL5579804, “Synthesis and kinetic evaluation of phosphomimetic inhibitors targeting type B ribose-5-phosphate isomerase from Mycobacterium tuberculosis” (Bioorg Med Chem Lett, 2024)

Assays:
[1] = molecular target: T1, ribose-5-phosphate isomerase (Spinacia oleracea, UniProt Q8RU73); test: Competitive inhibition of Spinacia oleracea RPIA using D-ribose-5-phosphate as substrate
T1 sequence (Q8RU73 whole entry): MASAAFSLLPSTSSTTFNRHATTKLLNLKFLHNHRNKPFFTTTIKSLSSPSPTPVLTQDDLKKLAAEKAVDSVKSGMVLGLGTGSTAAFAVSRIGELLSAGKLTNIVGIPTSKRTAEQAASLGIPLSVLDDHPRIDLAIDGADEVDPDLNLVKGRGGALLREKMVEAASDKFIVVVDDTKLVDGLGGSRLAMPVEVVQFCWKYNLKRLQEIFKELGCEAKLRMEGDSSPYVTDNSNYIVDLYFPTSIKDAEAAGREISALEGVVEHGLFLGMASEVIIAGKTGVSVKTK

[2] = molecular target: T2, Ribose-5-phosphate isomerase B (Escherichia coli (strain K12), UniProt P37351); test: Competitive inhibition of Escherichia coli RPIB using D-ribose-5-phosphate as substrate
T2 sequence (P37351 whole entry): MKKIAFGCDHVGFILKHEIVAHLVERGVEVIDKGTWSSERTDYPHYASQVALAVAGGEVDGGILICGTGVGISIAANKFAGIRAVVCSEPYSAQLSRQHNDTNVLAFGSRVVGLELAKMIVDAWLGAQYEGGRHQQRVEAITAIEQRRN

[3] = molecular target: T3, Ribose-5-phosphate isomerase B (Mycobacterium tuberculosis, UniProt P9WKD7); test: Competitive inhibition of Mycobacterium tuberculosis RPIB using D-ribose-5-phosphate as substrate
T3 sequence (P9WKD7 whole entry): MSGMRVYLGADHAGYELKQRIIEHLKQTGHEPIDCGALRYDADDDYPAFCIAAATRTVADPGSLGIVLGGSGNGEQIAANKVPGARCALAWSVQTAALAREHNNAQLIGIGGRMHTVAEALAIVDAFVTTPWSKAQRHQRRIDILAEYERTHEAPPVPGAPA

[4] = molecular target: T1, ribose-5-phosphate isomerase; test: Competitive inhibition of Spinacia oleracea RPIA assessed as inhibition constant using D-ribose-5-phosphate as substrate by Cheng-Prusoff equation analysis
[5] = Stability in Tris-HCl buffer spiked with alkaline phosphatase incubated for 24 hrs; format: physicochemical
[6] = Stability in Tris-HCl buffer spiked with calf serum incubated for 24 hrs; format: physicochemical, cell-free; details: cattle
[7] = Stability in Tris-HCl buffer assessed as compound hydrolysis incubated for 24 hrs; format: physicochemical; details: read-out: Drug degradation
[8] = molecular target: T2, Ribose-5-phosphate isomerase B; test: Competitive inhibition of Escherichia coli RPIB using D-ribose-5-phosphate as substrate by spectrophotometric analysis
[9] = molecular target: T3, Ribose-5-phosphate isomerase B; test: Competitive inhibition of Mycobacterium tuberculosis RPIB using D-ribose-5-phosphate as substrate by spectrophotometric analysis
[10] = molecular target: T3, Ribose-5-phosphate isomerase B; test: Competitive inhibition of Mycobacterium tuberculosis RPIB using D-ribose-5-phosphate as substrate assessed as inhibition constant by spectrophotometric analysis
[11] = molecular target: T3, Ribose-5-phosphate isomerase B; test: Competitive inhibition of Mycobacterium tuberculosis RPIB assessed as inhibition constant using D-ribose-5-phosphate as substrate by Cheng-Prusoff equation analysis
[12] = Stability in Tris-HCl buffer incubated for 24 hrs; format: physicochemical
[13] = molecular target: T2, Ribose-5-phosphate isomerase B; test: Competitive inhibition of Escherichia coli RPIB assessed as inhibition constant using D-ribose-5-phosphate as substrate by Cheng-Prusoff equation analysis

SMILES	IC50 [1] [µM]	IC50 [2] [mM]	IC50 [3] [µM]	Ki [4] [µM]	Stability [5]	Stability [6]	degraded at 24 h [7] [%]	IC50 [8] [mM]	IC50 [9] [µM]	Ki [10] [µM]	Ki [11] [µM]	Stability [12]	Ki [13] [µM]
O=C(O)[C@@H](O)[C@@H](O)[C@@H](O)COP(=O)(O)O (single isomer, unassigned)	95	1.4	21	38	Unstable	Unstable	20	1.31	31	9			
CC(C(C(=O)O)C(=O)O)[C@@H](O)[C@@H](O)[C@@H](O)CCC(=O)O (some centres not stated)	> 1500	> 1.5	470	> 750	Stable	Stable					290	Stable	
O=S(=O)(O)OC[C@H]1OC(O)[C@H](O)[C@@H]1O (some centres not stated)	320	0.16	120	180	Stable	Unstable					40	Stable	90
O=P(O)(O)CC[C@H]1OC(O)[C@H](O)[C@@H]1O (some centres not stated)	> 3000	2.41	> 3000		Stable	Stable						Stable	
CC(C(C(=O)O)C(=O)O)[C@@H](O)[C@@H](O)[C@@H](O)CCP(=O)(O)O (some centres not stated)	> 1500	1.36	200	> 750	Stable	Stable					80	Stable	
O=P(O)(O)OC[C@H]1O[C@@H](O)[C@H](O)[C@@H]1O					Unstable	Unstable	10						
O=C(O)C(C[C@H]1OC(O)[C@H](O)[C@@H]1O)C(=O)O (some centres not stated)	980	1.34	810	450	Stable	Stable					340	Stable	670
O=S(=O)(O)CC[C@H]1OC(O)[C@H](O)[C@@H]1O (some centres not stated)	620	0.48	240	290	Stable	Stable					110	Stable	170
